Laboratory results reported in publication PMC4076210, “Discovery of Novel AKT Inhibitors with Enhanced Anti-Tumor Effects in Combination with the MEK Inhibitor” (PLoS ONE, 2014).
Read-outs that look alike come from different tables or passages of the source.

Columns and labels:
Arg(m) = target: T1, Arg(m) (Mus musculus, UniProt Q4JIM5); assay: Kinase panel; assay type: biochemical
T1 construct: purchased Millipore KinaseProfiler

FGFR1(V561M)(h) = target: T2, FGFR1(V561M)(h) (Homo sapiens, UniProt P11362, V561M); assay: Kinase panel; assay type: biochemical
T2 construct: purchased Millipore KinaseProfiler
T2 sequence (P11362 22-822 V561M): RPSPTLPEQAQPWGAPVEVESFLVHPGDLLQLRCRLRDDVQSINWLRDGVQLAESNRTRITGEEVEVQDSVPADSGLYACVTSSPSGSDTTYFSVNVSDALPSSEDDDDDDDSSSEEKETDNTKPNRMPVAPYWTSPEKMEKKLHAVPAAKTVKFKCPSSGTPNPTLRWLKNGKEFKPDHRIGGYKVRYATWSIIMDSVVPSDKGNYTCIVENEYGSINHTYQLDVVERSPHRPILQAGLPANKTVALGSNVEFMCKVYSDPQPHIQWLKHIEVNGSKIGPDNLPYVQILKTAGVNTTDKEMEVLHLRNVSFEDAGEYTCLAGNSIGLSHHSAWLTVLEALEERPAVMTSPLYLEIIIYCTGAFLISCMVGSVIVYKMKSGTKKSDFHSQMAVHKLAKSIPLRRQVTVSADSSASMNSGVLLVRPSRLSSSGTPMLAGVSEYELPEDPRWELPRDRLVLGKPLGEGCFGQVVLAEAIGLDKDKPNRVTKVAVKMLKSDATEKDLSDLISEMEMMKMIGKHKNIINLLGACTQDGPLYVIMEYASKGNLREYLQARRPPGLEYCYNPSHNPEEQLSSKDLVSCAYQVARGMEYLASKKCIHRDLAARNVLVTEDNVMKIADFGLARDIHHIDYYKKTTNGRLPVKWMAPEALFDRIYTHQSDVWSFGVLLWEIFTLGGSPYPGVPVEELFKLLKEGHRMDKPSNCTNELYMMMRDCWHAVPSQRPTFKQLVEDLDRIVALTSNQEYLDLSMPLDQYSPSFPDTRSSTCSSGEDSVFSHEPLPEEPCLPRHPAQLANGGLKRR

GSK3α(h) = target: T3, GSK3α(h) (Homo sapiens, UniProt P49840); assay: Kinase panel; assay type: biochemical
T3 construct: purchased Millipore KinaseProfiler
T3 sequence (P49840 whole entry): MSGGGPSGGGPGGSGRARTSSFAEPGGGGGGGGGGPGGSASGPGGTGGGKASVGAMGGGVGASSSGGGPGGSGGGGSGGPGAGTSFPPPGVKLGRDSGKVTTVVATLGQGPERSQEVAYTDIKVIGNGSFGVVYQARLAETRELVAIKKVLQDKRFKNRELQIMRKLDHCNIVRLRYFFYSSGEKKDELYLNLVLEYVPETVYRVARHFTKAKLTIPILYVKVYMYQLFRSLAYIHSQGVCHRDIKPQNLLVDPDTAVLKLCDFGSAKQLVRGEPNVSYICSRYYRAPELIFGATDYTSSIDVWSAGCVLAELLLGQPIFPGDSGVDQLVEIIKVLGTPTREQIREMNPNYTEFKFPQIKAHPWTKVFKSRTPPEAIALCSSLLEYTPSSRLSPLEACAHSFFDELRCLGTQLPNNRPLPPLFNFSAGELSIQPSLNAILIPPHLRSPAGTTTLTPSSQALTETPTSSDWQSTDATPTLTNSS

MAPK1(h) = target: T4, MAPK1(h) (Homo sapiens, UniProt P27361); assay: Kinase panel; assay type: biochemical
T4 construct: purchased Millipore KinaseProfiler
T4 sequence (P27361 whole entry): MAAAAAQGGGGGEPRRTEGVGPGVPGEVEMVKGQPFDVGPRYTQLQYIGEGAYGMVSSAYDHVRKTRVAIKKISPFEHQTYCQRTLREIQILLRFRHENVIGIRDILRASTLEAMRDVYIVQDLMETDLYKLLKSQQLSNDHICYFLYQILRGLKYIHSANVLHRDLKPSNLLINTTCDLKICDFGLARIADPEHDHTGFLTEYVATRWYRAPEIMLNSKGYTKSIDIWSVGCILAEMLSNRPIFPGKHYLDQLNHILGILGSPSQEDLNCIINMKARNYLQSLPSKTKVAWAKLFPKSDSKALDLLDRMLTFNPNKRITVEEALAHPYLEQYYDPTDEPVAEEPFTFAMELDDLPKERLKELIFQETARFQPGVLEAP

MSK2(h) = target: T5, MSK2(h) (Homo sapiens, UniProt O75676); assay: Kinase panel; assay type: biochemical
T5 construct: purchased Millipore KinaseProfiler
T5 sequence (O75676 whole entry): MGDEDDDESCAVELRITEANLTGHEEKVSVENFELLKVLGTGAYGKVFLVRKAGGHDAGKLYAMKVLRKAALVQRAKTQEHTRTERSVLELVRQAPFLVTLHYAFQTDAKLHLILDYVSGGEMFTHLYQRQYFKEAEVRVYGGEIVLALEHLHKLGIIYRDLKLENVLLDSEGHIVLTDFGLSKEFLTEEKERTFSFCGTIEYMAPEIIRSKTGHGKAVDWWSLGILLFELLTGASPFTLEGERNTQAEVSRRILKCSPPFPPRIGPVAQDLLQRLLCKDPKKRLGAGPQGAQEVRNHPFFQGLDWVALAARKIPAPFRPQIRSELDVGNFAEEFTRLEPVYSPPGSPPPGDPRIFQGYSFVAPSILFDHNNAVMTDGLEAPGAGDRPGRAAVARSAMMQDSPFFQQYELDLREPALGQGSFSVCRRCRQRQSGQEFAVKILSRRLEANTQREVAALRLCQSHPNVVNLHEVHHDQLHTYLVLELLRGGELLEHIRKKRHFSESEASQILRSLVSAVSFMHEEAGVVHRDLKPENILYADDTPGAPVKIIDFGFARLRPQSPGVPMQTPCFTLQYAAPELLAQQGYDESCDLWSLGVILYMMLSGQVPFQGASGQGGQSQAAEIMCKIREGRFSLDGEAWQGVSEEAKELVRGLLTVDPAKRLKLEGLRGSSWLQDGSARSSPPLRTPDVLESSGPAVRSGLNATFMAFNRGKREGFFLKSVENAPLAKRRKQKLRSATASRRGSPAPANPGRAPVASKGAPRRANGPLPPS

PKG1β(h) = target: T6, PKG1β(h) (Homo sapiens, UniProt Q13976); assay: Kinase panel; assay type: biochemical
T6 construct: purchased Millipore KinaseProfiler
T6 sequence (Q13976 1-686 isoform Q13976-2): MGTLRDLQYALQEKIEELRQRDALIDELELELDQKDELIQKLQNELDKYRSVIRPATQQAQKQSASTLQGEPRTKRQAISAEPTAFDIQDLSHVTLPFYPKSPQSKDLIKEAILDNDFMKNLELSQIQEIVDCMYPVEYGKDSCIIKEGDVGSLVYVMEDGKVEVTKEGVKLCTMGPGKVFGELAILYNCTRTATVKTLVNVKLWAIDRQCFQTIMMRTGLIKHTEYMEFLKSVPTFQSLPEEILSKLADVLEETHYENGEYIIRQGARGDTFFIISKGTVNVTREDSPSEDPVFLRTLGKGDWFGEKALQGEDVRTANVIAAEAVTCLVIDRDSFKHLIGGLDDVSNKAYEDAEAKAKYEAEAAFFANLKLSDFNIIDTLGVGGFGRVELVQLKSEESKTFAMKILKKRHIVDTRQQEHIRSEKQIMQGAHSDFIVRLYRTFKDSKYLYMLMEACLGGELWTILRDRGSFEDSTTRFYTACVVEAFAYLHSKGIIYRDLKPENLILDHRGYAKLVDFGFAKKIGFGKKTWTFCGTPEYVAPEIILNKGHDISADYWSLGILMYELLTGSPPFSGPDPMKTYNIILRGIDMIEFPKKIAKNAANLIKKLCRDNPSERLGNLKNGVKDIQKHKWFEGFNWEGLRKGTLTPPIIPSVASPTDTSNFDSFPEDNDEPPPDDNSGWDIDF

TAO2(h) = target: T7, TAO2(h) (Homo sapiens, UniProt Q9UL54); assay: Kinase panel; assay type: biochemical
T7 construct: purchased Millipore KinaseProfiler
T7 sequence (Q9UL54 1-1235): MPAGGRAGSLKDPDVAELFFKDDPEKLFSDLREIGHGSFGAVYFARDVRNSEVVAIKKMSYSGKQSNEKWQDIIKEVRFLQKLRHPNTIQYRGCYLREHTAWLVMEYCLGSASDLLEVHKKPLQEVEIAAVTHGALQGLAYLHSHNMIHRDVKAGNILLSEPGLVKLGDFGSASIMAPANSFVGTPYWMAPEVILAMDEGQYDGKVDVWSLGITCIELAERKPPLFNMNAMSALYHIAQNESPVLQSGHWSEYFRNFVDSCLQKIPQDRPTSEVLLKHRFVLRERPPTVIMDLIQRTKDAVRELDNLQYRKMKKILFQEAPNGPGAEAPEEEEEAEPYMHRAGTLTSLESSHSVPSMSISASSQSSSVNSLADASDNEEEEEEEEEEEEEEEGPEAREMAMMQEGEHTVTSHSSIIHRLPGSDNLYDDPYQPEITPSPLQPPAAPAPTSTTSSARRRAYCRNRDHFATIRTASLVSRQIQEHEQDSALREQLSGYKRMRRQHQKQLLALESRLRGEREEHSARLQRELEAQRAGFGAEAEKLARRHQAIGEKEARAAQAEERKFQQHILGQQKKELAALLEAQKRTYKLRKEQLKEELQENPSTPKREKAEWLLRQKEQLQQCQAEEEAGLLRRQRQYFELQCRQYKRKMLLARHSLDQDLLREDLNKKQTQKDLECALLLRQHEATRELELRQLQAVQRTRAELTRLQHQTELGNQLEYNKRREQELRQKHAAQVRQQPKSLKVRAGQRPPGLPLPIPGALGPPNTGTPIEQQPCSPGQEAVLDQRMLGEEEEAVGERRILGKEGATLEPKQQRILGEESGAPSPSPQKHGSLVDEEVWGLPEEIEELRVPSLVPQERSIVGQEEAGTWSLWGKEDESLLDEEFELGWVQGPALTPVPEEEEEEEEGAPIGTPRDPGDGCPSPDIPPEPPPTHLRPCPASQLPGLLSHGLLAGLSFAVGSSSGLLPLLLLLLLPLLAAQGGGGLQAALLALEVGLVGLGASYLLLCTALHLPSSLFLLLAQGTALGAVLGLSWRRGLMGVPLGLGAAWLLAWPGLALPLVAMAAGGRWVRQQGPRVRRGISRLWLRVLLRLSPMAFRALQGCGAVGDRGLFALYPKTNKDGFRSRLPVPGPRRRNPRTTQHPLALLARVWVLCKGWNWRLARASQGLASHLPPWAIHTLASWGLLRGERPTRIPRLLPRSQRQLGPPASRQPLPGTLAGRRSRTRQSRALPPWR

pGSK-3β in BT474 = assay: phospho-GSK3β ELISA; assay type: cell-based; conditions: Homo sapiens, BT-474; BT474, 1 h, mean ± std dev
Protocol: (§1) ELISA plates were prepared by coating with anti-GSK3β antibody (R&D Systems), and blocked with 5% Milk/0.1% Tween-20. Cells were seeded at 25,000 cells/96-well overnight and treated with DMSO or various concentrations of drug for 1 h. Cells were lysed in 20 mM Tris-HCl (pH 8.0), 137 mM NaCl, 2 mM EDTA, 10% glycerol and 1% Triton X-100 and lysates transferred to ELISA plates and incubated overnight. The plates were washed and incubated with rabbit anti-phospho-GSK3β (Ser9) antibody (R&D Systems) for 1 h. After washing, plates were developed using HRP-linked anti-rabbit IgG, and 3,3′,5,5′-tetramethylbenzidine as substrate. Absorption was measured in a microplate spectrophotometer at 450 nm. The phospho-PRAS40 ELISA followed similar methodology as above with the exception of using a commercially available PRAS40 (pThr246) kit (Biosource) and following manufacturers' instructions for the ELISA analysis.

pGSK-3β in LNCaP = assay: phospho-GSK3β ELISA; assay type: cell-based; conditions: Homo sapiens, 1 h, mean ± std dev
Protocol: as §1

T1 sequence (Q4JIM5 2-1182 limits assumed): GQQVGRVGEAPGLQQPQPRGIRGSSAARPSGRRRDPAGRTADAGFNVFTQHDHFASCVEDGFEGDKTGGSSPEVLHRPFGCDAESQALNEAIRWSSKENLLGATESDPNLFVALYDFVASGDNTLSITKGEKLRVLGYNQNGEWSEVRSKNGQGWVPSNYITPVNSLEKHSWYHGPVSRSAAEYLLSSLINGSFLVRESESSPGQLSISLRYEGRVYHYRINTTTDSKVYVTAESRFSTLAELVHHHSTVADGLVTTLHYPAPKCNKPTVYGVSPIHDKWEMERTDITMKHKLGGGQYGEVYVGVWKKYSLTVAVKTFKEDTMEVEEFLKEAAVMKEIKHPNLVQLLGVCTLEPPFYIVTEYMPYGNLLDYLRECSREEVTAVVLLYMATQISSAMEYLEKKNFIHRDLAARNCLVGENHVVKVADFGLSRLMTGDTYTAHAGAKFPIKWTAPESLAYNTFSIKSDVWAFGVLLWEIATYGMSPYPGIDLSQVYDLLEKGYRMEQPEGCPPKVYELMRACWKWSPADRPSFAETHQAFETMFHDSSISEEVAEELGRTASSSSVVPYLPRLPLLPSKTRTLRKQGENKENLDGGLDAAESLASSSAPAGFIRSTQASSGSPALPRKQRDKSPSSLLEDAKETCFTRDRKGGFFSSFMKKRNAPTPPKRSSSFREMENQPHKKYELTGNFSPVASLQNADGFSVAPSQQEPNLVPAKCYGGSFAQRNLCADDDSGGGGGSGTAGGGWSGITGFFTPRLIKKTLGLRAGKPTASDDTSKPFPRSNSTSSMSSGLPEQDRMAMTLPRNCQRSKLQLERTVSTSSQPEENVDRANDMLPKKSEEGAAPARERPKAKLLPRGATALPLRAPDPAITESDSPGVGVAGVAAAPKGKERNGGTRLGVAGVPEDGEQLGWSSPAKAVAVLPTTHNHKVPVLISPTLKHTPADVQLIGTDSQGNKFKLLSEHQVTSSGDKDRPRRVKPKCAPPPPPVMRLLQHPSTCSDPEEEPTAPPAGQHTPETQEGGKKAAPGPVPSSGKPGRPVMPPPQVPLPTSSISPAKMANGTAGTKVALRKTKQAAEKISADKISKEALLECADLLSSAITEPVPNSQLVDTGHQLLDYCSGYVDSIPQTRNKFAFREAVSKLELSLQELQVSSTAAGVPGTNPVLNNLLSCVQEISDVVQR

Compound `Cn1ncc(Cl)c1-c1cc(C(=O)N[C@H](CN)Cc2cccc(F)c2)sc1Cl` [GSK2110183] has an inhibition at 0.5 µM (Arg(m)) of -1%, an inhibition at 10 µM (Arg(m)) of 1% and an inhibition at 0.5 µM (FGFR1(V561M)(h)) of -4%. It also gave an inhibition at 10 µM (FGFR1(V561M)(h)) of 16%, an inhibition at 0.5 µM (GSK3α(h)) of -2% and an inhibition at 10 µM (GSK3α(h)) of -1%. It also gave an inhibition at 0.5 µM (MAPK1(h)) of -26%, an inhibition at 10 µM (MAPK1(h)) of 10% and an inhibition at 0.5 µM (MSK2(h)) of 85%. For the same compound, the inhibition at 10 µM (MSK2(h)) was 97%, the inhibition at 0.5 µM (PKG1β(h)) was 101% and the inhibition at 10 µM (PKG1β(h)) was 101%. For the same compound, the inhibition at 0.5 µM (TAO2(h)) was -7%, the inhibition at 10 µM (TAO2(h)) was 12% and the IC50 (pGSK-3β in BT474) was 316 ± 91 nM. It also gave an IC50 (pGSK-3β in LNCaP) of 76 ± 16 nM.

`Cn1ncc(Cl)c1-c1cc(C(=O)N[C@H](CN)Cc2ccc(F)c(F)c2)oc1Cl` [GSK2141795] gave an inhibition at 0.5 µM (Arg(m); 0.5 µM, read-out: % Inhibition) of -1%, an inhibition at 10 µM (Arg(m); 10 µM, read-out: % Inhibition) of 7% and an inhibition at 0.5 µM (FGFR1(V561M)(h); 0.5 µM, read-out: % Inhibition) of 15%. For the same compound, the inhibition at 10 µM (FGFR1(V561M)(h); 10 µM, read-out: % Inhibition) was 36%, the inhibition at 0.5 µM (GSK3α(h); 0.5 µM, read-out: % Inhibition) was -26% and the inhibition at 10 µM (GSK3α(h); 10 µM, read-out: % Inhibition) was -19%. For the same compound, the inhibition at 0.5 µM (MAPK1(h); 0.5 µM, read-out: % Inhibition) was 4%, the inhibition at 10 µM (MAPK1(h); 10 µM, read-out: % Inhibition) was 58% and the inhibition at 0.5 µM (MSK2(h); 0.5 µM, read-out: % Inhibition) was 98%. It also gave an inhibition at 10 µM (MSK2(h); 10 µM, read-out: % Inhibition) of 102%, an inhibition at 0.5 µM (PKG1β(h); 0.5 µM, read-out: % Inhibition) of 101% and an inhibition at 10 µM (PKG1β(h); 10 µM, read-out: % Inhibition) of 100%. For the same compound, the inhibition at 0.5 µM (TAO2(h); 0.5 µM, read-out: % Inhibition) was -5%, the inhibition at 10 µM (TAO2(h); 10 µM, read-out: % Inhibition) was -2% and the IC50 (pGSK-3β in BT474) was 143 ± 21 nM. It also gave an IC50 (pGSK-3β in LNCaP) of 34 ± 5 nM.
